Entries after “also recorded” stand apart in the source; their conditions may differ.
Biological target: ALK4-FKBP12 interaction (Homo sapiens, UniProt P62942)
Experiment: reversed interaction trap: pSELFFY-ALK4 bait with inhibitory prey pMET7-fPPD1-FKBP12, rPAP1-luciferase reporter in HEK293T cells
Type: cell-based
Details: pSELFFY-ALK4 + pMET7-fPPD1-FKBP12 (1000, 500, 250 ng), FK506 pretreatment, Epo 5 ng/ml after four hours, normalized with irrelevant bait pSELFFY-EpoR, FIG. 6
Experimental: HEK293T cells (six-well plate) were transfected with a combination of the following plasmids:
A representative experiment of triplicate luciferase measurements is shown. The values have been normalized using background luciferase activities (fold induction) and by using an irrelevant bait construct (pSELFFY-EpoR, exp. 4-6) to correct for toxicity of FK506 on the cells.
Two days after transfection, cells were seeded in black well plates (approximately 10,000 cells/well) and pretreated with various concentrations of FK506 as indicated. Epo was added after four hours to the treated cells (5 ng/ml). Twenty-four hours after stimulation, luciferase and beta-galactosidase activities were measured.
The values have been normalized using background luciferase activities (fold induction) and by using an irrelevant bait construct (pSELFFY-EpoR, exp. 4-6) to correct for toxicity of FK506 on the cells.

ALK4-FKBP12 interaction, sequence (P62942 2-107): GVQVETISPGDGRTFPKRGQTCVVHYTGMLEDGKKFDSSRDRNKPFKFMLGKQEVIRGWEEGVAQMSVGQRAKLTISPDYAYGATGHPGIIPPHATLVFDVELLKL
ALK4-FKBP12 interaction, sequence (P18031 1-276 partner limits assumed): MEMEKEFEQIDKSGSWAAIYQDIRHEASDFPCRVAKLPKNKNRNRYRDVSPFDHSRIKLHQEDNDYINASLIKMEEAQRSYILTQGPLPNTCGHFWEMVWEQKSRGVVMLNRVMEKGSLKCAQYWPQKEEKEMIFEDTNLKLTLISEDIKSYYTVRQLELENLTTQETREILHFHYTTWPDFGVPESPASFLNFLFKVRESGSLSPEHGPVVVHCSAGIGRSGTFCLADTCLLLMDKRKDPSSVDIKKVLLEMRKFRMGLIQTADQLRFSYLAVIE

SMILES: C=CC[C@@H]1/C=C(\C)C[C@H](C)C[C@H](OC)[C@H]2O[C@@](O)(C(=O)C(=O)N3CCCC[C@H]3C(=O)O[C@H](/C(C)=C/[C@@H]3CC[C@@H](O)[C@H](OC)C3)[C@H](C)[C@@H](O)CC1=O)[C@H](C)C[C@@H]2OC [FK506]
- restoration of signaling via the pSELFFY-ALK4 bait / block of inhibition by the bait-prey interaction (luciferase activity, fold induction): blocked, in a dose dependent manner; also recorded: partially restores signaling

Source: patent US8048986B2, “Reversed mammalian protein-protein interaction trap” (Vlaams Interuniversitair Instituut Voor Biotechnologie VZW, priority 2001, dated 2011)
